Data published in patent US20130197071A1, “PRODUCTION OF LIPOXYGENASE INHIBITORS VIA FUNGAL BIOSYNTHETIC PATHWAY” (UNIVERSITY OF SOUTHERN CALIFORNIA, priority 2012, published 2013).
“Also recorded” adds a separate entry of the source. Read-outs that look alike come from different tables or passages of the source.

Experiments:
[1] = biological target: T1, soybean LOX-1 (Lipoxygenase-1, 15-Lipoxygenase) (Glycine max, UniProt P08170); assay: Soybean lipoxygenase-1 (LOX-1) inhibition assay, spectrophotometric at 234 nm, linoleic acid substrate; assay type: biochemical; conditions: for LOX-1 inhibition (result in words): screening for soybean LOX-1 inhibition
T1 construct: purchased Cayman Chemical #60712
T1 sequence (P08170 1-839): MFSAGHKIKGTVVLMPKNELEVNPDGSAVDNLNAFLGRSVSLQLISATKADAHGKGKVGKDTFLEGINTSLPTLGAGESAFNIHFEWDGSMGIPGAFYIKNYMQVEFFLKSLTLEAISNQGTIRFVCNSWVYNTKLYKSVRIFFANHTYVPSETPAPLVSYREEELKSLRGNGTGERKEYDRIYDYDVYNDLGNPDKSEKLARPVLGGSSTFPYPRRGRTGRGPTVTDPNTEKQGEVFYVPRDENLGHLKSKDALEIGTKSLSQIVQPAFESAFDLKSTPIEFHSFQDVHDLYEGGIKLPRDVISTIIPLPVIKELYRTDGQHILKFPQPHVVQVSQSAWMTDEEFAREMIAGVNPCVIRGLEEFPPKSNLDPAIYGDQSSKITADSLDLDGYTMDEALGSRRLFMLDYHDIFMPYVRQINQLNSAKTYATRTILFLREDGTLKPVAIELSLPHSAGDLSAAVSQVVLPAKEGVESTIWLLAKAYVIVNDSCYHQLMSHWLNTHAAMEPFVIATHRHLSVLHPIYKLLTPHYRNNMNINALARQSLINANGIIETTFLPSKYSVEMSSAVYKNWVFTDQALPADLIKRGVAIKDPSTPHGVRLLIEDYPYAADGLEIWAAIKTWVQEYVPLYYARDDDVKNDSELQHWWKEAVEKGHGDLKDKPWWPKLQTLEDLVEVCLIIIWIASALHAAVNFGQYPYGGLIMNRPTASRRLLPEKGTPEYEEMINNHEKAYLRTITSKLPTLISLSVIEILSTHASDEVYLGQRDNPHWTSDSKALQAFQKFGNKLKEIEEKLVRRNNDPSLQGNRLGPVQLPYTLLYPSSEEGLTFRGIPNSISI
Protocol: ^1H and ^13C NMR spectra were recorded on a Varian Mercury Plus 400 spectrometer. Chemical shifts are reported in ppm relative to CDCl3 (^1H, δ 7.26; ^13C, δ 77.0) or acetone-d6 (^1H, δ 2.05; ^13C, δ 30.0, 206.0). ^1H NMR data is reported as: chemical shift, multiplicity (s=singlet, d=doublet, t=triplet, q=quartet, m=multiplet), coupling constant, and integration. Infrared spectra were recorded on a JASCO FTIR-4100. Infrared frequencies are reported in reciprocal centimeters. High resolution electrospray ionization mass was obtained on an Agilent 6210 time of flight LC-MS. Reactions were monitored by analytical thin-layer chromatography on EMD silica gel-60^F254 plates. Flash chromatography was performed on EMD silica gel 60, 70-230 mesh. All reagents were used without further purification unless otherwise noted. Reagents were purchased from Sigma-Aldrich, and Alfa Aesar. Diethyl ether (anhydrous) and 1,2-dichloroethane (anhydrous) were used directly from the bottle. Water sensitive reactions were performed under a nitrogen atmosphere with oven-dried glassware. Kinetic experiments for lipoxygenase inhibition were recorded on a Shimadzu UV-2401PC at 26° C. Materials for the lipoxygenase assay such as linoleic acid, 15-Lipoxygenase (soybean PO, and (+)-sclerotiorin were purchased from Cayman Chemicals.
The enzyme assay was performed according to Axelrod et. al.^18 Each solution was prepared and measured at room temperature. Enzyme kinetics was measured on a Shimadzu UV-2401PC at a wavelength of 234 nm in a quartz cuvette (FIG. 6). For the assay, the linoleic acid substrate was prepared by mixing 20 μL linoleic acid (Cayman Chemical #760716) with 20 μL KOH (Cayman Chemical #760713) and 40 μL double distilled water. Lipoxygenase-1 (Cayman Chemical #60712) was diluted from original stock concentration to a concentration of 100 U/mL in the cuvette. The semisynthetic azaphilones were prepared as stock concentrations in dimethylsulfoxide (DMSO) from 20 μM to 10 mM; 54, was added to the assay mixture to give the desired final concentration of the inhibitor with 1% of DMSO in the assay.
The spectrophotometric assay is based on monitoring the reaction, catalyzed by LOX-1 to convert linoleic acid (L) to the hydroperoxide (LOOH), at 234 nm. […] The reaction is initiated when the non-heme iron of LOX-1 in the ferric state is reduced by the substrate L. While in the enzyme-substrate complex, L is oxidized and converted to the peroxide free radical (LOO.), and subsequently released from the enzyme as LOOH Inhibitors can interfere in the process in several different ways to prevent the generation of LOOH by the chelation of iron, removal of oxygen or prevention of free radical formation.
Prior to measurements, a sample with buffer was used as a blank. In a quartz cuvette, each sample was prepared with 482.54, 0.2 M borate buffer (at a pH of 9.0) mixed with 54, inhibitor and 54, substrate by pipetting the solution. The cuvette was placed in the spectrophotometer and measured for 120 seconds and then rapidly 7.54, lipoxygenase-1 was added and mixed to initiate the reaction. Measurements were recorded every 30 seconds for 7.5 minutes.
Inhibition of an enzyme at 50% can be experimentally measured by monitoring enzyme kinetics. A kinetic study generates a curve where the slope provides the initial velocity (Vo) of the enzyme. For each sample with different inhibitor concentrations the initial velocity was derived from a linear segment between […]. The absorbance was used directly and not converted into concentration units. […] The concentration of inhibitor at which 50% inhibition occurred (as measured by change in Vo) was reported as the IC50.

[2] = Solubility of compound 5 in aqueous culture media; assay type: physicochemical; conditions: liquid lactose minimal medium culture
Description: The fungal strain used to over-produce compound 5 contains genetic alterations as described in Table 1. The native promoter of afoA, the gene that codes for the pathway-specific transcription activator of the asperfuranone pathway was replaced with the inducible alcohol dehydrogenase promoter, alcA. The afoD gene, that codes for the hydroxylase in the asperfuranone pathway, was deleted to enable the accumulation of intermediate, compound 5.^11 It should be noted that the afo cluster is silent under normal laboratory growing conditions. The wild type strain, thus, produced non-detectable compound 5 and asperfuranone (4).

[3] = biological target: T1, soybean LOX-1 (Lipoxygenase-1, 15-Lipoxygenase); conditions: literature report (ref. 5); cited from earlier work
[4] = soybean LOX-1, linoleic acid, 0.2 M borate buffer pH 9.0, 1% DMSO, 234 nm, read-out: Lipoxygenase-1 Inhibitory Activity IC50 (μM) ± s.d.

Molecule	IC50 [1, 4] [µM]	also measured
CC[C@H](C)/C=C(C)/C=C/C1=CC2=C(Cl)C(=O)C(C)(OC(C)=O)C(=O)C2=CO1 (stereo partly drawn) [Compound 8]	2.3 ± 0.9	–
CC[C@H](C)/C=C(C)/C=C/C1=CC2=C(Cl)C(=O)C(C)(O)C(=O)C2=CO1 (stereo partly drawn) [Compound 12]	–	IC50 [1]: 7.9 ± 3.9 µM
CC[C@H](C)/C=C(C)/C=C/C1=CC2=C(Br)C(=O)C(C)(OC(C)=O)C(=O)C2=CO1 (stereo partly drawn) [Compound 9]	6.8 ± 4.5	–
asperfuranone [Compound 4]	> 100	–
CC[C@H](C)/C=C(C)/C=C/C1=CC2=CC(=O)C(C)(OC(C)=O)C(=O)C2=CO1 (stereo partly drawn) [Compound 7]	4.9 ± 3.3	LOX-1 inhibition (result in words) [1]: highest lipoxgyenase-1 inhibition; also recorded: most effective
CC[C@H](C)/C=C(C)/C=C/C1=CC2=C(Cl)C(=O)[C@](C)(OC(C)=O)C(=O)C2=CO1 [Compound 1, (+)-sclerotiorin, reference compound]	7.8 ± 2.4	LOX-1 inhibition of (+)-sclerotiorin according to a report [3]: potent LOX-1 inhibition

Continued, in another order:

IC50 [1, 4] [µM]	Molecule	also measured
10.7 ± 6.6	CC[C@H](C)/C=C(C)/C=C/C1=CC2=CC(=O)C(C)(O)C(=O)C2=CO1 (stereo partly drawn) [Compound 11]	–
> 100	CCOC(=O)C=C1C2=COC(/C=C/C(C)=C/[C@@H](C)CC)=CC2=C(Br)C(=O)C1(C)O (stereo partly drawn) [Compound 16]	–
17.4 ± 8.1	CC[C@H](C)/C=C(C)/C=C/C1=CC2=C(I)C(=O)C(C)(OC(C)=O)C(=O)C2=CO1 (stereo partly drawn) [Compound 10]	–
> 100	CCOC(=O)C=C1C2=COC(/C=C/C(C)=C/[C@@H](C)CC)=CC2=CC(=O)C1(C)O (stereo partly drawn) [Compound 15]	–
97.2 ± 2	CC[C@H](C)/C=C(C)/C=C/C(=O)Cc1cc(O)c(C)c(O)c1C=O (stereo in doubt) [Compound 5, 2,4-dihydroxy-6-(5,7-dimethyl-2-oxo-trans-3-trans-5-nonadienyl)-3-methylbenzaldehyde]	Solubility in aqueous media (in words) [2]: poorly dissolved in aqueous media
19.6 ± 11.9	CC[C@H](C)/C=C(C)/C=C/C1=CC2=C(I)C(=O)C(C)(O)C(=O)C2=CO1 (stereo partly drawn) [Compound 14]	–
3.2 ± 1.5	CC[C@H](C)/C=C(C)/C=C/C1=CC2=C(Br)C(=O)C(C)(O)C(=O)C2=CO1 (stereo partly drawn) [Compound 13]	LOX-1 inhibition (result in words) [1]: highest lipoxgyenase-1 inhibition; also recorded: most effective
> 100	CCOC(=O)C=C1C2=COC(/C=C/C(C)=C/[C@@H](C)CC)=CC2=C(I)C(=O)C1(C)O (stereo partly drawn) [Compound 17]	–
